Test [1] has as its target T1, human A2A adenosine receptor (Homo sapiens, UniProt P29274).
T1 construct: expressed in transfected cells; host or cells: CHO cells (membranes)
Nature of the test: [3H]ZM241385 binding to human A2A receptors expressed in CHO cells. The settings on record: for pKi: read-out: Ki, [3H]ZM241385 binding to human A2A receptors expressed in CHO cells. Here is the method:
(§1) The cells were grown adherently and maintained in Dulbecco's modified Eagle's medium with nutrient mixture F12 without nucleosides at 37° C. in 5% CO2/95% air. The cells were washed with phosphate-buffered saline and scraped off flasks in ice cold hypotonic buffer ([…] Tris HCl, 2 mM EDTA, pH 7.4). The cell suspension was homogenized with a Polytron and the homogenate was centrifuged for 30 minutes at 48,000 g. The resultant membrane pellet was re-suspended in 50 mM Tris HCl buffer at pH 7.4 for A1 adenosine receptors; in 50 mM Tris HCl 10 mM MgCl, at pH 7.4 for A2A adenosine receptors; in 50 mM Tris HCl, 10 mM MgCl2, 1 mM EDTA, at pH 7.4 for A3 adenosine receptors and were utilized for binding assays.
(§2) The filter bound radioactivity was counted on Top Count (efficiency 57%) with Micro-Scint 20.
(§3) The filter bound radioactivity was counted on a Top Count brand Microplate Scintillation Counter (efficiency 57%) with Micro-Scint 20. […] Inhibitory binding constant. […] Results and Discussion

The target of test [2] is T2, human A3 adenosine receptor (Homo sapiens, UniProt P0DMS8).
T2 construct: expressed in transfected cells; host or cells: CHO cells (membranes)
T2 sequence (P0DMS8 1-318): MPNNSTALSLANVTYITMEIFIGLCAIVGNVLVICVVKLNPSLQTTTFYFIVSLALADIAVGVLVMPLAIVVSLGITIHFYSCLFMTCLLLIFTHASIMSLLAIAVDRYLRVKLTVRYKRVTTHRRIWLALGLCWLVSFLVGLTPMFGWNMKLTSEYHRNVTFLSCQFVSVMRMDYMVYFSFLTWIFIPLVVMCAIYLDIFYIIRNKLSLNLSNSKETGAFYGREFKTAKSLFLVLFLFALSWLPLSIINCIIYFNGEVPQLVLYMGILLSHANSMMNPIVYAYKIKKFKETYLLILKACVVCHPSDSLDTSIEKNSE
Nature of the test: [3H]MRE3008F20 binding to human A3 receptors expressed in CHO cells. The procedure: as §1
Binding of [^3H]-MRE3008-F20 to CHO cells transfected with the human recombinant A3 adenosine receptors was performed according to Varani et al., 2000. Competition experiments were carried out in duplicate in a final volume of 250 μl in test tubes containing 1 nM [^3H]-MRE3008-F20, 50 mM Tris HCl buffer, […] MgCl2, pH 7.4 and 100 μl of diluted membranes (50 μg of protein/assay) and at least 6–8 different concentrations of examined ligands for 120 minutes at 4° C.
as §2, §3

The target in test [3] is T3, human A1 adenosine receptor (Homo sapiens, UniProt P30542).
T3 construct: expressed in transfected cells; host or cells: CHO cells (membranes)
T3 sequence (P30542 1-326): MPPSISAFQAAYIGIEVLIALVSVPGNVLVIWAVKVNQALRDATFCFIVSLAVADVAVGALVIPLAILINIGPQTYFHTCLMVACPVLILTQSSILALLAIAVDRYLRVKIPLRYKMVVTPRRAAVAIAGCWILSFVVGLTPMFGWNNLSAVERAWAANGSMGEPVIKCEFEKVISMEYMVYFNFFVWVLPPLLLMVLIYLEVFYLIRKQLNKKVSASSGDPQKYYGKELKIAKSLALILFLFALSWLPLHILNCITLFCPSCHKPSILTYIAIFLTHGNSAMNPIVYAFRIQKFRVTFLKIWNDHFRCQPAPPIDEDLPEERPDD
Put plainly: [3H]DPCPX binding to human A1 receptors expressed in CHO cells. Here is the method:
as §1
Displacement experiments were performed for 120 minutes at 25° C. in 200 μl of buffer containing 1 nM ^3H]-DPCPX 20 μl of diluted membranes (50 μg of protein/assay) and at least 6 to 8 different concentrations of examined compounds.
as §2, §3

Test [4] deals with T4, human A2B adenosine receptor (Homo sapiens, UniProt P29275).
T4 sequence (P29275 1-332): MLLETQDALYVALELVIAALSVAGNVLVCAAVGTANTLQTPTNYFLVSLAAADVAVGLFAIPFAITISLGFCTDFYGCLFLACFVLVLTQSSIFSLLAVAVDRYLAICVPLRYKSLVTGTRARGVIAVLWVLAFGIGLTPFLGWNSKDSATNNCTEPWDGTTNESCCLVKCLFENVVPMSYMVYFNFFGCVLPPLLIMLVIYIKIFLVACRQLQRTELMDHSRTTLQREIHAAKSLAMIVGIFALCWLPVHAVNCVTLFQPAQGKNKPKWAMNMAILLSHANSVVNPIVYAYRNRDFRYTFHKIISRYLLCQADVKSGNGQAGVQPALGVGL
Put plainly: [3H]DPCPX binding to human A2B receptors expressed in HEK293 cells. The arrangement: host or cells: HEK 293 cells (membranes). The note with it: geometric mean (95% confidence interval); >1000 = no appreciable binding; read-out: Ki, [3H]DPCPX binding to human A2B receptors expressed in HEK293 cells. Here is the method: HEK 293 cells transfected with the human recombinant A2B adenosine receptor were obtained from Receptor Biology, Inc. (Beltsville, Md. USA).
Binding of 1 [^3H]-DPCPX to HEK 293 cells transfected with the human recombinant A2B adenosine receptors was performed according to the method described by Varani et al., 2000. In particular, assays were carried out for 60 minutes at 25° C. in 100 μl of […] Tris HCl buffer, […] MgCl2, 1 mM EDTA, 0.1 mM benzamidine pH 7.4, 2 IU/ml adenosine deaminase containing 40 nM [^3H]-DPCPX, diluted membranes (20 μg of protein/assay) and at least 6–8 different concentration of tested compounds.
as §2, §3

The mark [5] stands for this setting: geometric mean (95% confidence interval), >1000 = no appreciable binding.

pKi: −log10 of the molar value. “Also recorded” adds a separate entry of the source. Read-outs that look alike come from different tables or passages of the source.

T1 sequence (P29274 whole entry): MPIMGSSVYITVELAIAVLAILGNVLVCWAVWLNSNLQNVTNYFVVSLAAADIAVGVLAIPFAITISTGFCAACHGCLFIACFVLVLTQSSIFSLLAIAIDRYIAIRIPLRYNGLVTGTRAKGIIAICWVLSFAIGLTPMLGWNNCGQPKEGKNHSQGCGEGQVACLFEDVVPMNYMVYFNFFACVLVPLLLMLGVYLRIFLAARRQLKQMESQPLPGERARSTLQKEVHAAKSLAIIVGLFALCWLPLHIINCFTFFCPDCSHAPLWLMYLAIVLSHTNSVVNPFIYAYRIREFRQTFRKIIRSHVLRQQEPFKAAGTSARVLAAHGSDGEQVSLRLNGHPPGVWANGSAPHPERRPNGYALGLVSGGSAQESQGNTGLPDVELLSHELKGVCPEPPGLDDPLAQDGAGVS

In the case of `CCCn1c(=O)c2[nH]c(-c3cc(NC(=O)Cc4ccc(F)cc4)nn3C)nc2n(CCC)c1=O` [AS22, N-[5-(2,6-dioxo-1,3-dipropyl-2,3,6,9-tetrahydro-1H-purin-8-yl)-1-methyl-1H-pyrazol-3-yl]-2-(4-fluorophenyl)acetamide], the pKi in test [1] is below 6.00; in test [2], below 6.00; in test [3] (setting [5]) it was 6.70; in test [4] it was 7.06.
On to `CCCn1c(=O)c2[nH]c(-c3cc(OCC(=O)N4CCN(c5ccccc5)CC4)nn3C)nc2n(CCC)c1=O` [AS70, 1,3-di-n-propyl-8-{5-[2-oxo-2-(4-phenyl-piperazin-1-yl)-ethoxy]-2-methyl-2H-pyrazole-3-yl}-xanthine], for which the pKi was below 6.00 in test [1], below 6.00 in test [2], 6.60 in test [3] (setting [5]) and 7.82 in test [4].
For the molecule `CCCn1c(=O)c2c(nc(/C=C/c3cc(C(=O)OCC)n(C)c3)n2C)n(CCC)c1=O` [AS33, ethyl 4-[(E)-2-(7-methyl-1,3-dipropyl-2,6-dioxo-2,3,6,7-tetrahydro-1H-purin-8-yl)vinyl]-1-methyl-1H-pyrrole-2-carboxylate], the pKi in test [1], in test [2], in test [3] and in test [4] was below 6.00 each time.
As to `CCCn1c(=O)c2[nH]c(-c3cc(OCC(=O)Nc4ccc(C)cc4)nn3C)nc2n(CCC)c1=O` [AS59, N-(4-methylphenyl)-2-{[5-(1,3-dipropyl-2,6-dioxo-2,3,6,7-tetrahydro-1H-purin-8-yl)-1-methyl-1H-pyrazol-3-yl]oxy}acetamide], the pKi in test [1] (setting [5]) was below 6.00; in test [2] (setting [5]), below 6.00; in test [3] (setting [5]), below 6.00; in test [4], 5.99.
`CCCn1c(=O)c2[nH]c(-c3cc(NC(=O)Nc4ccc(OC)cc4)nn3C)nc2n(CCC)c1=O` [AS49, 1-[5-(2,6-Dioxo-1,3-dipropyl-2,3,6,7-tetrahydro-1H-purin-8-yl)-1-methyl-1H-pyrazol-3-yl]-3-(4-methoxy-phenyl)-urea]: the pKi is below 6.00 in test [1], below 6.00 in test [2], 5.84 in test [3] (setting [5]) and 7.09 in test [4].
As for `CCCn1c(=O)c2[nH]c(-c3cc(NC(=O)Cc4ccc(OCc5cccc(C(F)(F)F)c5)cc4)nn3C)nc2n(CCC)c1=O` [AS30, N-[5-(2,6-dioxo-1,3-dipropyl-2,3,6,9-tetrahydro-1H-purin-8-yl)-1-methyl-1H-pyrazol-3-yl]-2-(4-{[3-(trifluoromethyl)benzyl]oxy}phenyl)acetamide], the pKi is below 6.00 in test [1], below 6.00 in test [2], 7.00 in test [3] (setting [5]) and 7.05 in test [4].
For `CCCn1c(=O)c2[nH]c(-c3cc(NC(=O)Nc4ccc(N(C)C)cc4)nn3C)nc2n(CCC)c1=O` [AS53, N-[4-(dimethylamino)phenyl]-N'-[5-(2,6-dioxo-1,3-dipropyl-2,3,6,7-tetrahydro-1H-purin-8-yl)-1-methyl-1H-pyrazol-3-yl]urea], the pKi in test [1] was below 6.00; in test [2], below 6.00; in test [3] (setting [5]) it was 5.62; in test [4], 7.23.
Regarding `CCCn1c(=O)c2[nH]c(-c3cc(NC(=O)Cc4ccc(OCc5ccccc5)c(OC)c4)nn3C)nc2n(CCC)c1=O` [AS56, 2-[4-(benzyloxy)-3-methoxyphenyl]-N-[5-(2,6-dioxo-1,3-dipropyl-2,3,6,9-tetrahydro-1H-purin-8-yl)-1-methyl-1H-pyrazol-3-yl]acetamide], the pKi is 5.61 in test [1], below 6.00 in test [2], 5.75 in test [3] and 7.00 in test [4].
With `CCCn1c(=O)c2[nH]c(-c3cc(NC(=O)CCCN)nn3C)nc2n(CCC)c1=O` [AS10, 4-{[5-(2,6-dioxo-1,3-dipropyl-2,3,6,7-tetrahydro-1H-purin-8-yl)-1-methyl-1H-pyrazol-3-yl]amino}-4-oxobutan-1-aminium chloride], the pKi in test [1] is below 6.00; in test [2], below 6.00; in test [3] (setting [5]), 6.26; in test [4], 5.69.
Consider `CCCn1c(=O)c2[nH]c(-c3cc(N)nn3C)nc2n(CCC)c1=O` [AS3, 8-(3-amino-1-methyl-1H-pyrazol-5-yl)-1,3-dipropyl-3,7-dihydro-1H-purine-2,6-dione], for which the pKi in test [1] is below 6.00; in test [2], below 6.00; in test [3] (setting [5]), 6.70; in test [4] it was 6.63.
Take `CCCn1c(=O)c2[nH]c(-c3cc(NC(=O)Cc4ccc(O)cc4)nn3C)nc2n(CCC)c1=O` [AS17, 2-[4-hydroxyphenyl]-N-[5-(2,6-dioxo-1,3-dipropyl-2,3,6,9-tetrahydro-1H-purin-8-yl)-1-methyl-1H-pyrazol-3-yl]acetamide]: the “Ki, [3H]ZM241385 binding to human A2A receptors expressed in CHO cells” value in test [1] (setting [5]) was “no appreciable affinity; also recorded: without significant binding”. Moreover, the pKi in test [1] was below 6.00; in test [2], below 6.00; in test [4], 6.99. In addition, the “Ki, [3H]MRE3008F20 binding to human A3 receptors expressed in CHO cells” value in test [2] (setting [5]) was “no appreciable affinity; also recorded: without significant binding”. In test [3] (setting [5]), the “Ki, [3H]DPCPX binding to human A1 receptors expressed in CHO cells” value is on record as “no appreciable affinity; also recorded: without significant binding”.
With `Cn1nc(N)cc1-c1nc2c([nH]1)c(=O)n(C)c(=O)n2C` [AS38, 8-(3-amino-1-methyl-1H-pyrazol-5-yl)-1,3-dimethyl-3,7-dihydro-1H-purine-2,6-dione], the pKi in test [1] was below 6.00; in test [2], below 6.00; in test [3], below 6.00; in test [4], 6.76.
Turning to `CCCn1c(=O)c2[nH]c(-c3cc(NC(=O)Cc4ccc(OCc5ccccc5)cc4)nn3C)nc2n(CCC)c1=O` [AS16, 2-[4-benzyloxyphenyl]-N-[5-(2,6-dioxo-1,3-dipropyl-2,3,6,9-tetrahydro-1H-purin-8-yl)-1-methyl-1H-pyrazol-3-yl]acetamide], the “Ki, [3H]ZM241385 binding to human A2A receptors expressed in CHO cells” value in test [1] (setting [5]) is recorded as “no appreciable affinity; also recorded: without significant binding”. The pKi in test [1] was below 6.00; in test [2], below 6.00; in test [4] it was 7.25. The “Ki, [3H]MRE3008F20 binding to human A3 receptors expressed in CHO cells” value in test [2] (setting [5]) is reported as “no appreciable affinity; also recorded: without significant binding”. Further, the “Ki, [3H]DPCPX binding to human A1 receptors expressed in CHO cells” value in test [3] (setting [5]) was “no appreciable affinity; also recorded: without significant binding”.

The record behind these values is US7205403B2, “8-Heteroaryl xanthine adenosine A2B receptor antagonists” (King Pharmaceuticals Research and Development, Inc., priority 2002, dated 2007).
